Where no end group is shown, it is not given here.

The values that follow come from publication PMC4598324, “Crystal structures of Bbp from Staphylococcus aureus reveal the ligand binding mechanism with Fibrinogen α” (Protein & Cell, 2015).

One experiment concerns the target T1, Bbp^273−598 (Staphylococcus aureus, UniProt Q14U76).
T1 construct: covering residues Asn^273–Pro^598 of Bbp from S. aureus; GST (cleaved; GPLGS remains at the N-terminus) (N, cleaved yes); made in house; host or cells: Escherichia coli BL21
T1 sequence (Q14U76 273-598): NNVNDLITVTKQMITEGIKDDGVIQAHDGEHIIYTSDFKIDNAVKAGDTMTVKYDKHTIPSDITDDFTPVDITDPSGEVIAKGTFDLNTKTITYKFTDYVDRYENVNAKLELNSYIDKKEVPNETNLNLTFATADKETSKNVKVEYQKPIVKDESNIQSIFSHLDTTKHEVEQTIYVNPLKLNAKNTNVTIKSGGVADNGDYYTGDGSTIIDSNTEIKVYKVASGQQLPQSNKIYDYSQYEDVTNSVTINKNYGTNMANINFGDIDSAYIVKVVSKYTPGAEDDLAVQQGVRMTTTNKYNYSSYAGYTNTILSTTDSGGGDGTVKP
In words: Isothermal titration calorimetry (ITC), Fg α^561−575 titrated into Bbp^273−598. It is filed as binding. The note with it: 25°C, Microcal iTC200, cell 50 μmol/L Bbp^273−598, syringe 500 μmol/L peptide, 200 mmol/L NaCl, 20 mmol/L HEPES pH 7.5, first peak not used for analysis. The source says: (§1) The fragment of the Bbp gene (corresponding to 273–598 aa) was amplified using S. aureus ATCC 25923 genomic DNA by PCR. The gene fragments of mutated proteins Bbp^T582A and Bbp^L584A followed the same protocol. After digestion with BamHI and XhoI (NEB), the amplified fragments were cloned into the prokaryotic expression vector pGEX-6p-1 (GE Healthcare Life Sciences) to produce the GST-Bbp fusion protein and were confirmed by DNA sequencing. The recombinant protein was expressed in Escherichia coli strain BL21 with a high yield.
The recombinant protein was firstly purified by GST-affinity column and digested with PreScission protease overnight. The eluant was collected and concentrated for further purification using gel filtration chromatography (Superdex-200 column, GE Healthcare) in buffer containing 20 mmol/L HEPES pH 7.5, 200 mmol/L NaCl, 2 mmol/L DTT on the FPLC system (GE Healthcare Life Sciences). The proteins in every step of purification were analyzed by SDS-PAGE.
(§2) The peptide corresponding to the fibrinogen α^561−575 was synthesized as previously described (Vazquez et al., [2011]).
ITC experiments were carried out at 25°C using a Microcal iTC200 instrument (GE Healthcare). […] The data were fitted and analyzed using the Origin 7 software package (Microcal).

The target in the next experiment is T2, Bbp^L584A (Staphylococcus aureus, UniProt Q14U76, L584A).
T2 construct: The fragment of the Bbp gene (corresponding to 273–598 aa) was amplified; GST (pGEX-6p-1) (N); made in house; host or cells: Escherichia coli BL21
T2 sequence (Q14U76 273-598 L584A): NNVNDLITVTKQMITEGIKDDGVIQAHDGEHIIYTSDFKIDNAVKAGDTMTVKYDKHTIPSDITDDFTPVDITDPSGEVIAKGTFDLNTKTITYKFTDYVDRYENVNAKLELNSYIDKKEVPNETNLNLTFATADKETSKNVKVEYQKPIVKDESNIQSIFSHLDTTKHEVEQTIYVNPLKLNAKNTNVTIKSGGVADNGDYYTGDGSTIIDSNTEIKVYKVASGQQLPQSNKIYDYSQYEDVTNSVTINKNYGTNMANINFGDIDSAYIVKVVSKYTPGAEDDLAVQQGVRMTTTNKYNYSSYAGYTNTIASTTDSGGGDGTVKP
Nature of the experiment: Surface plasmon resonance (SPR), immobilized mutant L584A. The note with it: BIAcore T200, L584A mutant immobilized on CM5 chip (3375RU), peptide 62.5 to 0.976 μmol/L in 200 mmol/L NaCl, 20 mmol/L HEPES (pH 7.5), 30 μL/min, binding 60 s, dissociation 120 s.
Text: (§3) Figure 5 SPR analyses of the interactions between Bbp ^273−598 WT and mutants (T582A and L584A) and the Fg α ^561−575 (A–C), respectively. The proteins were immobilized on a BIA-core sensor chip.
as §1, §2
(§4) The interaction affinities between Fg α^561−575 and Bbp^273−598 protein were conducted by surface plasmon resonance (SPR) using BIAcore T200 instrument (GE Healthcare). The wild type Bbp^273−598 protein and two mutants were immobilized, respectively, on a CM5 sensor chip in 10 mmol/L sodium acetate, pH 4.5. The immobilization level was 3375RU. The synthetic peptide in 200 mmol/L NaCl and 20 mmol/L HEPES (pH 7.5) was injected on the protein-coated surface at various concentrations at 30 μL/min. The binding and dissociation was 60 s and 120 s, respectively.
On the technique in general: Surface plasmon resonance follows binding to a sensor surface in real time, without labels.

A further experiment addresses T3, Bbp^T582A (Staphylococcus aureus, UniProt Q14U76, T582A).
T3 construct: The fragment of the Bbp gene (corresponding to 273–598 aa) was amplified; GST (pGEX-6p-1) (N); made in house; host or cells: Escherichia coli BL21
T3 sequence (Q14U76 273-598 T582A): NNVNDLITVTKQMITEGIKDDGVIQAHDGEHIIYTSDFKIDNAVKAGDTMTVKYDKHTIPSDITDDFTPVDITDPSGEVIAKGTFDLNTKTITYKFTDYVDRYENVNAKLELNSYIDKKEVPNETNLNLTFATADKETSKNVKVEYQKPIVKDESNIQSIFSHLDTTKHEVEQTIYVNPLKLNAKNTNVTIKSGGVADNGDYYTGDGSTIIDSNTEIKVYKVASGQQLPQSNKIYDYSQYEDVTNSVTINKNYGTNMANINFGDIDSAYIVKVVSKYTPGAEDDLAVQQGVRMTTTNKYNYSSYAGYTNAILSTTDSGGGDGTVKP
Nature of the experiment: Surface plasmon resonance (SPR), immobilized mutant T582A. Conditions: BIAcore T200, T582A mutant immobilized on CM5 chip (3375RU), peptide 62.5 to 0.976 μmol/L in 200 mmol/L NaCl, 20 mmol/L HEPES (pH 7.5), 30 μL/min, binding 60 s, dissociation 120 s.
Text: as §3, §1, §2, §4

The target of experiment [1] is Bone sialoprotein-binding protein (Bbp) residues 273-598 (N2 and N3 domains) (S. aureus) (UniProt Q14U76). Nature of the experiment: ITC; 500 μmol/L peptide in the syringe titrated into 50 μmol/L Bbp^273−598 in the cell; 25°C; 200 mmol/L NaCl, 20 mmol/L HEPES pH 7.5; Microcal iTC200. For orientation: Isothermal titration calorimetry measures the heat released or taken up as one component is titrated into another.

Experiment [2] addresses T4, Bone sialoprotein-binding protein (Bbp) residues 273-598 (N2 and N3 domains) (S. aureus, UniProt Q14U76 273-598).
T4 chain: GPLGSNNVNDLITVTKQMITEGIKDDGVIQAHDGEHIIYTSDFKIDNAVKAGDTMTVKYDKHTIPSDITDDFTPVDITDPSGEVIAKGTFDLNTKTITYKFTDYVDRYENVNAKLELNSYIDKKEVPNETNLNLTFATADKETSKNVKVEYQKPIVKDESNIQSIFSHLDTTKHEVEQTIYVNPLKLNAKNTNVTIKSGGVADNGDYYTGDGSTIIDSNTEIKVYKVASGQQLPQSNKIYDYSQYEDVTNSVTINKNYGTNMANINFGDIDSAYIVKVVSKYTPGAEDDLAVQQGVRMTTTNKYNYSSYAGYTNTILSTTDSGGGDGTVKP
Nature of the experiment: SPR.

By Kd is commonly meant the constant that tells how readily two partners part at equilibrium. The low end stands for a tighter complex, the high end for a looser complex. For the molecule SKQFTSSTSYNRGDS [Fg α^561−575], the values for the Kd at Bbp^273−598, on Bbp^L584A and at Bbp^T582A were 290 nM, 456 nM and 537 nM, respectively. For the molecule “Fibrinogen α chain peptide, residues 561-575”, the Kd in experiment [1] is 290 nM. SKQFTSSTSYNRGDS [Fibrinogen α chain peptide, residues 561-575] displayed a Kd in experiment [2] of 1620 nM.
